Each block holds one molecule with its values, some of them ahead of it.
Tested on: 377384-186-R-J1-PDC complex spheroid viability
Assay: Anticancer human tumor 377384-186-R-J1-PDC patient-derived pancreatic carcinoma cell line growth inhibition [CLK]
Details: for IC50: curve of first compound; for viability, T/C: stronger effect = lower value
Procedure, shortened: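 Patient-derived tumor cells grown as complex spheroids with HUVEC endothelial cells and mesenchymal stem cells, treated with drug combinations. Concentrations descend in half-log steps from near clinical Cmax, or from 10 microM if Cmax unknown.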

[1] = second compound 0.0316 µM, first compound 0.0316 µM
[2] = second compound 0.0316 µM, first compound 0.1 µM
[3] = second compound 0.0316 µM, first compound 0.316 µM
[4] = second compound 0.0316 µM, first compound 1 µM
[5] = second compound 0.1 µM, first compound 0.0316 µM
[6] = second compound 0.1 µM, first compound 0.1 µM
[7] = second compound 0.1 µM, first compound 0.316 µM
[8] = second compound 0.1 µM, first compound 1 µM
[9] = second compound 0.316 µM, first compound 0.0316 µM
[10] = second compound 0.316 µM, first compound 0.1 µM
[11] = second compound 0.316 µM, first compound 0.316 µM
[12] = second compound 0.316 µM, first compound 1 µM
[13] = second compound 1 µM, first compound 0.0316 µM
[14] = second compound 1 µM, first compound 0.1 µM
[15] = second compound 1 µM, first compound 0.316 µM
[16] = second compound 1 µM, first compound 1 µM
[17] = second compound 3.16 µM, first compound 0.0316 µM
[18] = second compound 3.16 µM, first compound 0.1 µM
[19] = second compound 3.16 µM, first compound 0.316 µM
[20] = second compound 3.16 µM, first compound 1 µM
[21] = second compound 10 µM, first compound 0.0316 µM
[22] = second compound 10 µM, first compound 0.1 µM
[23] = second compound 10 µM, first compound 0.316 µM
[24] = second compound 10 µM, first compound 1 µM
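Further: spheroids exposed to agents for 7 days before reading.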
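Wherever viability, T/C is given: luminescence signal used as a stand-in for viable cells.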

Structure (SMILES): Nc1ccccc1NC(=O)c1ccc(CNC(=O)OCc2cccnc2)cc1 + CN1CCN(c2cc(C(=O)Nc3cc4cc(-c5cnn(C)c5)ccc4cn3)ccn2)CC1
IC50 (second compound 0.0316 µM): 780 nM
IC50 (second compound 0.1 µM): 822 nM
IC50 (second compound 0.316 µM): < 31.6 nM
IC50 (second compound 1 µM): < 31.6 nM
IC50 (second compound 3.16 µM): < 31.6 nM
IC50 (second compound 10 µM): < 31.6 nM
viability, T/C [1]: 103%
viability, T/C [2]: 90%
viability, T/C [3]: 76.3%
viability, T/C [4]: 42.4%
viability, T/C (second compound 0.0316 µM, first compound 3.16 µM): 16.2%
viability, T/C (second compound 0.0316 µM, first compound 10 µM): 1.31%
viability, T/C [5]: 109%
viability, T/C [6]: 103%
viability, T/C [7]: 90.8%
viability, T/C [8]: 38.9%
viability, T/C (second compound 0.1 µM, first compound 3.16 µM): 17.7%
viability, T/C (second compound 0.1 µM, first compound 10 µM): 0.84%
viability, T/C [9]: 30.4%
viability, T/C [10]: 28.1%
viability, T/C [11]: 29.1%
viability, T/C [12]: 19%
viability, T/C (second compound 0.316 µM, first compound 3.16 µM): 3.98%
viability, T/C (second compound 0.316 µM, first compound 10 µM): 0.15%
viability, T/C [13]: 1.55%
viability, T/C [14]: 1.77%
viability, T/C [15]: 1.31%
viability, T/C [16]: 0.3%
viability, T/C (second compound 1 µM, first compound 3.16 µM): 0.25%
viability, T/C (second compound 1 µM, first compound 10 µM): 0.12%
viability, T/C [17]: 0.38%
viability, T/C [18]: 0.95%
viability, T/C [19]: 0.9%
viability, T/C [20]: 0.39%
viability, T/C (second compound 3.16 µM, first compound 3.16 µM): 0.52%
viability, T/C (second compound 3.16 µM, first compound 10 µM): 0.62%
viability, T/C [21]: 0.58%
viability, T/C [22]: 0.42%
viability, T/C [23]: 0.45%
viability, T/C [24]: 0.3%
viability, T/C (second compound 10 µM, first compound 3.16 µM): 0.62%
viability, T/C (second compound 10 µM, first compound 10 µM): 0.76%

IC50 (second compound 0.0316 µM): 29.9 nM
IC50 (second compound 0.1 µM): 12.2 nM
IC50 (second compound 0.316 µM): < 3.16 nM
IC50 (second compound 1 µM): < 3.16 nM
IC50 (second compound 3.16 µM): < 3.16 nM
IC50 (second compound 10 µM): < 3.16 nM
Structure (SMILES): COc1c(OCCCN2CCOCC2)ccc2c3n(c(=NC(=O)c4cnc(N)nc4)nc12)CCN3 + CNC(=O)c1ccc(Nc2nc(OC3CCCC3)c3c(-c4ccc5nc(C)oc5c4)c[nH]c3n2)c(OC)c1
viability, T/C (second compound 0.0316 µM, first compound 0.00316 µM): 74.8%
viability, T/C (second compound 0.0316 µM, first compound 0.01 µM): 66.1%
viability, T/C [1]: 47.6%
viability, T/C [2]: 33.9%
viability, T/C [3]: 23.1%
viability, T/C [4]: 14%
viability, T/C (second compound 0.1 µM, first compound 0.00316 µM): 63.3%
viability, T/C (second compound 0.1 µM, first compound 0.01 µM): 54.5%
viability, T/C [5]: 35.7%
viability, T/C [6]: 27.5%
viability, T/C [7]: 17.4%
viability, T/C [8]: 12%
viability, T/C (second compound 0.316 µM, first compound 0.00316 µM): 19.1%
viability, T/C (second compound 0.316 µM, first compound 0.01 µM): 19.1%
viability, T/C [9]: 14.5%
viability, T/C [10]: 14%
viability, T/C [11]: 11.6%
viability, T/C [12]: 10.4%
viability, T/C (second compound 1 µM, first compound 0.00316 µM): 19%
viability, T/C (second compound 1 µM, first compound 0.01 µM): 16.6%
viability, T/C [13]: 16.8%
viability, T/C [14]: 12.2%
viability, T/C [15]: 10.7%
viability, T/C [16]: 9.69%
viability, T/C (second compound 3.16 µM, first compound 0.00316 µM): 19.9%
viability, T/C (second compound 3.16 µM, first compound 0.01 µM): 17.6%
viability, T/C [17]: 13.6%
viability, T/C [18]: 12.9%
viability, T/C [19]: 9.91%
viability, T/C [20]: 9.78%
viability, T/C (second compound 10 µM, first compound 0.00316 µM): 21.4%
viability, T/C (second compound 10 µM, first compound 0.01 µM): 17.7%
viability, T/C [21]: 14.4%
viability, T/C [22]: 11.6%
viability, T/C [23]: 10.8%
viability, T/C [24]: 9.14%

From PubChem BioAssay AID2060616 (Molecular Pharmacology Branch, DTP, NCI, 2025)
